A value given as a limit tells only on which side of the number the result lay.

For orientation: melting point means the temperature of the solid-liquid transition. The compound `Cc1ccc(-c2ccc(Cl)c(C(=O)NCC34CC5CC(CC(C5)C3)C4)c2)c(C(=O)O)c1` registered a melting point of 214 to 216 °C. Under `N#Cc1nn(-c2c(Cl)cc(C(F)(F)F)cc2Cl)c(NCc2ccccn2)c1SC(F)F` stands 117 to 120 °C.

With `CC(=O)Oc1cc(C(=O)O)cc(C(=O)O)c1`, the melting point was 240 °C. `Cc1ccc2c(c1)C(=O)c1ccc(C#N)cc1S2(=O)=O` returned a melting point of 290 °C. The value for `Cc1nc(C)nc(NC(=O)NS(=O)(=O)c2ccccc2Cl)n1` was 115 to 118 °C.

Turning to `CCOC(=O)CCCC(=O)c1cn(-c2cccnc2)c2ccccc12`, the melting point was in the range of 95 to 97 °C. Under `CCCOC(=O)CCc1cc(S(C)(=O)=O)cc(-c2nc(=O)c3ccc(Cl)cc3s2)n1` stands 235 to 236 °C; under `COc1ccc2c3c(c(=O)oc2c1)CN(Cc1ccnc2ccccc12)CC3`, 186 to 188 °C. The value for `Cc1cccc(C(=O)NC(Nc2c(Nc3cccnc3)c(=O)c2=O)C(C)(C)C)c1` (configuration not stated) was 236 to 237 °C; that for `CCOC(=O)c1cc(Cl)c(Cl)c(C2=NOCC2)c1C` was 96 to 97 °C; that for `CC(C)(C)c1cc(-n2nc3ccc(Cl)cc3n2)c(O)c(C(C)(C)c2ccc(Cl)cc2)c1` was 130 to 131 °C. `Cc1cc(C(=O)O)c(NC(=O)C(C)C)s1` came in with a melting point of 160 to 162 °C. Under `NCCCCc1c[nH]c(-c2ccc(F)cc2)c1-c1ccncc1` stands 185 to 187 °C; under `CCN1N=C(c2ccc([N+](=O)[O-])cc2)C(C)(C)C1=O`, 118 to 120 °C. On to `O=c1[nH]nc2n1C=Cc1cc(Cl)ccc1C2`, for which the melting point is 281 to 283 °C. For `Cc1nccn1-c1nc(-c2ccc(Cl)cc2)c(CCCn2cccn2)o1`, the melting point lay in the range of 129 to 130 °C. On to `C=CCNc1cc(C(=O)O)cc(S(N)(=O)=O)c1-c1ccccc1`, for which the melting point was 169 to 172 °C. The value for `COc1ccc(C2=NN(C(=O)c3cccc(NC(=O)c4ccc(NC(=O)c5ccc([N+](=O)[O-])cc5)cc4)c3)CCC2)cc1OCCN(C)C` was 274 °C; that for `C#Cc1cn(C2CC(OC(=O)C(C)(C)C)C(COC(=O)C(C)(C)C)O2)c(=O)[nH]c1=O` (configuration not stated) was 151 °C. The compound `CCOCCOCCOCCOc1cc(OCCCCCCCCCCCCOc2ccccc2)cc(N(CC(=O)OC)CC(=O)OC)c1` displayed a melting point of under 24 °C. In turn, `CC1(C)C(=O)Nc2ccc(C3=NNC(=O)C4CCC34)cc21` (configuration not stated) yielded a melting point of 315 to 317 °C. Under `COc1cc(S)c(C(C)=O)c(OC)c1` stands 57 to 59 °C. The value for `CCc1nnc(CCCOc2c(C)cc(-c3noc(C)n3)cc2C)s1` was 83 to 84 °C. The value for `O=c1[nH]c2ncc(-c3ccc(O)cc3)nc2n1CCc1ccccc1` was 283 to 284 °C; that for `CCOC(=O)c1cnn(C)c1C(=O)Nc1ccn2nc(N(C)CC)nc2c1` was 167 °C. `CC(=O)OCC(C)C1CCC2C3CC=C4CC(O)CCC4(C)C3CCC12C` (configuration not stated) registered a melting point of 143 °C.

The compound `C=CCCCCCCCCc1nc2c(s1)NCCCC2` displayed a melting point of 94 to 95 °C. In turn, `CCOCCCC(NC=O)C1(c2ccc(Cl)cc2)CCC1` (configuration not stated) registered a melting point of 58 to 59 °C. The value for `CC(C)CC(=O)Nc1ccc(Cl)c(-c2ccnc3c(C(=O)c4cccs4)cnn23)c1` was 162 to 165 °C; that for `CC(C)C1(C)NC(c2ccc3ccccc3n2)=NC1=O` (configuration not stated) was 112 to 117 °C; that for `Cc1cc(OCc2ccccc2)cc(C)c1CC(=O)OCc1ccccc1` was 62 to 64 °C.

Compound `N#CC(=C1C=CC(=NO[Si](c2ccccc2)(c2ccccc2)c2ccccc2)C=C1)c1ccccc1` yielded a melting point of 161 to 165 °C.

With `C[C@@H]1NC(=O)OC1(C)C`, the melting point amounted to 60 °C. The compound `O[C@H]1CC[C@H](Oc2cccc3onc(OCC4CCN(CC5(O)CCOCC5)CC4)c23)C1` (relative stereo) yielded a melting point of 147 °C.

In the case of `CCOC(=O)c1c2ccc(Cl)cc2c(-c2ccccc2)n1CCCC(C)C1OCCO1` (configuration not stated), the melting point lay in the range of 100 to 101 °C. For the compound `CCOC(=O)CNC(=O)CNCc1ccc(-c2cc3ncnc(Nc4ccc5[nH]ccc5c4)c3s2)cc1`, the melting point was 98 to 115 °C. The value for `CCOc1cc(C(C)(c2cc(OCC)c(O)c(OCC)c2)c2cc(OCC)c(O)c(OCC)c2)cc(OCC)c1O` was 78 °C; that for `O=c1[nH]c2ccccc2n1CCCN1CCN(C(c2ccc(F)cc2)c2ccc(F)cc2)CC1` was 197 °C; that for `CC#COc1ccc2c(=O)c3ccccc3oc2c1` was 142 to 144 °C. As to `C#Cc1cnn2ccc(-c3ccc(Cl)cc3)nc12`, the melting point is 128 to 129 °C. Under `Cc1cc(S(=O)(=O)Nc2cc(F)c(Oc3cnc4ccccc4c3)c(Cl)c2)c(Cl)cc1Cl` stands 187 °C; under `O=C(c1ccc(OC(F)(F)F)cc1)c1ccc(C(F)(F)F)cc1`, 61.5 to 62 °C. Take `CC(CCC(=O)N(Cc1ccccc1)Cc1ccccc1)(c1ccc(O)cc1)c1ccc(O)cc1`: the melting point lay in the range of 203 to 207 °C. `Nc1nc2c(ncn2C2CC(CO)C2CO)c(=O)[nH]1` (configuration not stated): the melting point was in the range of 91 to 92 °C.

Regarding `CC(=O)OC1CSC(Oc2cccc(-c3ncccc3Cl)c2)C(OC(C)=O)C1OC(C)=O` (configuration not stated), the melting point is 148 °C. The value for `O=C1O[C@H](C(Cl)(Cl)Cl)N2CCC[C@@]12Cc1ccccc1` was 75 to 77 °C.

In the case of `O=Cc1cccc([N+](=O)[O-])c1F`, the melting point lay in the range of 46 to 47 °C. Under `Fc1c(Cl)cccc1COc1cccnc1NC(=S)Nc1ccc(Cl)cc1` stands 174 to 176 °C; under `O=C(O)[C@H](Cc1ccc(F)cc1)[C@@H](O)c1ccc(C(F)(F)F)cc1` (racemic), 120 to 121 °C; under `O=C(NNS(=O)(=O)c1ccccc1)c1ccc(NCc2ccccc2)cc1`, 214 to 215 °C. Under `O=c1oc2c(c(O)c1C(c1ccccc1)C1CC1)CCCCC2Cc1ccccc1` (configuration not stated) stands 178 to 182 °C; under `CC(=O)Oc1ccc(C(C)=NOCCOc2ccc(CC3SC(=O)NC3=O)cc2)cc1` (configuration not stated), 133 to 135 °C. `Cc1cc(Nc2nc(-c3ccccc3)nc3ncccc23)[nH]n1` registered a melting point of 234 °C. The value for `COc1cccc(C(F)(F)F)c1S(=O)(=O)NC(=O)Nc1nc(C)cc(C)n1` was 190 °C; that for `Nc1cc(Cl)cc(Cc2cc(Cl)cc(N)c2O)c1O` was 212 to 215 °C; that for `O=C(O)C(O)c1ccc(-c2ccc(Cl)cc2)s1` (configuration not stated) was 158 to 160 °C. Under `COc1cc2c(c(OC(C)=O)c1)C1CCC3(C)C(=O)C(O)CC3C1CC2` (configuration not stated) stands 228 to 231 °C; under `COc1cnc(C(O)Cc2c(Cl)cncc2Cl)cc1OC1CCCC1` (configuration not stated), 110 to 112 °C; under `COc1ccc2cc(C(C)C(=O)OCC(=O)OCCO[N+](=O)[O-])ccc2c1` (configuration not stated), 44 to 45 °C. The value for `Cc1cc(=O)[nH]c2cc(OCCCN3CCC(NC(=O)c4ccccc4)CC3)ccc12` was 275 to 276 °C. Regarding `CC(C)Oc1ccc2nc(CO)n(C)c2n1`, the melting point lay within 125 to 127 °C. The value for `CN(C)C(=S)SC(C[N+](=O)[O-])c1ccc(Cl)cc1Cl` (configuration not stated) was 127 to 128 °C.

(Values after a melting point compilation (Tetko et al.; mined from patent text by program, amines drawn as free bases though some values may be those of a salt).)
